According to US9193722B2, “Tri-cyclic pyrazolopyridine kinase inhibitors” (Vertex Pharmaceuticals Incorporated, priority 2008, dated 2015):

Key:
Format in all cases: biochemical
[1] = molecular target: PKC theta kinase (Homo sapiens, UniProt Q04759); assay: PKC theta kinase inhibition, coupled-enzyme (NADH absorbance) assay, Ki; conditions: 240 μM ATP, 18 nM PKC theta kinase, 30° C.
In short: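 Coupled-enzyme kinase assay following NADH absorbance at 340 nm, in 100 mM HEPES pH 7.5, 10 mM MgCl2, 25 mM NaCl, 0.1 mM EDTA, 0.01% Brij. Compound in DMSO preincubated with enzyme 10 min at 30 °C. Ki from initial rates by non-linear regression.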

[2] = molecular target: PKC delta kinase (Homo sapiens, UniProt Q05655); assay: PKC delta kinase inhibition, coupled-enzyme (NADH absorbance) assay, Ki; conditions: 150 μM ATP, 46 nM PKC delta kinase, 30° C.; read-out: Ki PKC delta
In short: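 PKC delta in 100 mM HEPES pH 7.5, 10 mM MgCl2, 25 mM NaCl, 0.1 mM EDTA, 0.01% Brij, equilibrated 10 min at 30° C with compound from DMSO stock. Started with ATP at 150 μM final; NADH-coupled absorbance at 340 nm followed 15 min at 30° C. Ki from initial rates by non-linear regression.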

[3] = molecular target: PKC alpha kinase (Homo sapiens, UniProt P17252); assay: PKC alpha kinase inhibition, coupled-enzyme (NADH absorbance) assay, Ki; conditions: 130 μM ATP, 4.5 nM PKC alpha kinase, 30° C.
In short: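 Enzyme in 100 mM HEPES pH 7.5, 10 mM MgCl2, 100 μM CaCl2, 0.01% Brij, preincubated with compound 10 min at 30 °C. Reaction started with 130 μM ATP (final); NADH consumption followed at 340 nm for 15 min at 30 °C. Ki fitted by non-linear regression of initial rates.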

Chain of PKC delta kinase (Q05655 whole entry): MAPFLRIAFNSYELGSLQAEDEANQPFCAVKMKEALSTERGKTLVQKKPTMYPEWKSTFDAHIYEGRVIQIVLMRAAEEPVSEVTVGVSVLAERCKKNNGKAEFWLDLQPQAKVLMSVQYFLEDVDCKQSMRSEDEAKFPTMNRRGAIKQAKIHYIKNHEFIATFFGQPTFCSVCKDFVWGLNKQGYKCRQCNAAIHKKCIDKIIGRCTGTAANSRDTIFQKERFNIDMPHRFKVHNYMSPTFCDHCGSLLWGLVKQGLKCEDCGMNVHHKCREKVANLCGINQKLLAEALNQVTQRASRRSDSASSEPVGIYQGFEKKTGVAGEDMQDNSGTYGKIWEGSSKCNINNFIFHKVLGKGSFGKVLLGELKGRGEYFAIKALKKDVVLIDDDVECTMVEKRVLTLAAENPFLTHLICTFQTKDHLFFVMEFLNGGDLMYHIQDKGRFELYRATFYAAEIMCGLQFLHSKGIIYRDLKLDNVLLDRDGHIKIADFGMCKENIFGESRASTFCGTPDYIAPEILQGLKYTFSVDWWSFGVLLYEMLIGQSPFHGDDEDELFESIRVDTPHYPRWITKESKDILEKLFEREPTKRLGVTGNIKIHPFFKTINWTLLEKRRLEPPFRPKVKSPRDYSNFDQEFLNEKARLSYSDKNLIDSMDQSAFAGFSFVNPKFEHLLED
Chain of PKC theta kinase (Q04759 whole entry): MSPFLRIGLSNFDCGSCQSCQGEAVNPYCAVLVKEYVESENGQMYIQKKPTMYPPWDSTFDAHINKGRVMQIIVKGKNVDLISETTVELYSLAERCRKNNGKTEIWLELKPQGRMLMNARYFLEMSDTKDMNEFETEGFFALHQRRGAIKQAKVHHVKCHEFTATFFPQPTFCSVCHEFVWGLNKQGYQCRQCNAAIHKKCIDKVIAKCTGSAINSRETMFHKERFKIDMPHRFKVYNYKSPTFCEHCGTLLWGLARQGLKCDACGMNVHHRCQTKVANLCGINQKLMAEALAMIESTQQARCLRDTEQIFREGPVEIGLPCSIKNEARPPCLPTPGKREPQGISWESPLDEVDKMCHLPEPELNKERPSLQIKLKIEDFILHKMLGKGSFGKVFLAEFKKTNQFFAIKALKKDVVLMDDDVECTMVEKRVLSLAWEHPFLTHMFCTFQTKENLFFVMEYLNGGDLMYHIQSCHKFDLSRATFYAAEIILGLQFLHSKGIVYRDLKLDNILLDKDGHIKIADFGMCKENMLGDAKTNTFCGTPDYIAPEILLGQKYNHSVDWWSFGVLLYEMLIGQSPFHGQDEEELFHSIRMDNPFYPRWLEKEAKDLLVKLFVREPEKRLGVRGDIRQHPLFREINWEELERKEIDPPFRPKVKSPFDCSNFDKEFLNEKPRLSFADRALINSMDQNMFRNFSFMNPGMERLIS

| SMILES | Ki [1] | Ki [2] | Ki [3] |
| --- | --- | --- | --- |
| NCC1CN(c2ccc(F)c(-c3n[nH]c4ncccc34)n2)CCC1O (stereo not drawn) [Compound 296] | < 500 nM | < 2800 nM | > 1250 nM |
| Fc1ccc(N2CCc3[nH]ncc3C2)nc1-c1n[nH]c2ncccc12 [Compound 298] | > 700 nM | > 1250 nM | > 1250 nM |
| CC(C)CC(N)C1CCCN(c2ccc(F)c(-c3n[nH]c4ncccc34)n2)C1 (stereo not drawn) [Compound 299] | < 50 nM | < 2800 nM | > 1250 nM |
| NC(c1ccccc1)C1CCCN(c2ccc(F)c(-c3n[nH]c4ncccc34)n2)C1 (stereo not drawn) [Compound 301] | < 500 nM | > 1250 nM | > 1250 nM |
| NC(=O)C1CCCN(c2ccc(F)c(-c3n[nH]c4ncccc34)n2)C1 (stereo not drawn) [Compound 302] | > 700 nM | > 1250 nM | > 1250 nM |
| CC(=O)NCC1CCCN(c2ccc(F)c(-c3n[nH]c4ncccc34)n2)C1 (stereo not drawn) [Compound 303] | > 700 nM | > 1250 nM | > 1250 nM |
| NCCC1CCCN(c2ccc(F)c(-c3n[nH]c4ncccc34)n2)C1 (stereo not drawn) [Compound 304] | > 700 nM | > 1250 nM | > 1250 nM |
| CN(C)CC1CCCN(c2ccc(F)c(-c3n[nH]c4ncccc34)n2)C1 (stereo not drawn) [Compound 305] | > 700 nM | > 1250 nM | > 1250 nM |
| NCc1cccc(-c2ccc(C(F)(F)F)c(-c3n[nH]c4ncccc34)n2)c1 [Compound 306] | > 700 nM | > 1250 nM | > 1250 nM |
| CC(C)(C)C(N)C1CCCN(c2ccc(F)c(-c3n[nH]c4ncccc34)n2)C1 (stereo not drawn) [Compound 307] | < 1 nM | < 50 nM | < 500 nM |
| CC(C)(C)C(N)C1CCCN(c2ccc(F)c(-c3n[nH]c4ncccc34)n2)C1 (stereo not drawn) [Compound 308] | < 50 nM | < 2800 nM | > 1250 nM |
| Fc1ccc(N2CC3CCNCC3C2)nc1-c1n[nH]c2ncccc12 (stereo not drawn) [Compound 309] | < 2800 nM | > 1250 nM | > 1250 nM |
| CC(C)(N)C1CCCN(c2ccc(F)c(-c3n[nH]c4ncccc34)n2)C1 (stereo not drawn) [Compound 310] | < 500 nM | < 500 nM | < 2800 nM |
| Fc1ccc(N2CCC3(CCNC3)C2)nc1-c1n[nH]c2ncccc12 (stereo not drawn) [Compound 312] | > 700 nM | > 1250 nM | > 1250 nM |
| CC1CN(c2ccc(F)c(-c3n[nH]c4ncccc34)n2)CC1CN (stereo not drawn) [Compound 313] | < 500 nM | > 1250 nM | > 1250 nM |
| Fc1ccc(N2CCCC(C3CCCN3)C2)nc1-c1n[nH]c2ncccc12 (stereo not drawn) [Compound 314] | < 500 nM | > 1250 nM | > 1250 nM |
| CC1(N)CCCN(c2ccc(F)c(-c3n[nH]c4ncccc34)n2)C1 (stereo not drawn) [Compound 316] | < 500 nM | > 1250 nM | > 1250 nM |

| SMILES | Ki [1] | Ki [2] | Ki [3] |
| --- | --- | --- | --- |
| CC(C)(C)CC(N)C1CCCN(c2ccc(F)c(-c3n[nH]c4ncccc34)n2)C1 (stereo not drawn) [Compound 317] | < 50 nM | > 1250 nM | > 1250 nM |
| CC1(N)CCCN(c2ccc(C(F)(F)F)c(-c3n[nH]c4ncccc34)n2)C1 (stereo not drawn) [Compound 319] | > 700 nM | > 1250 nM | > 1250 nM |
| FC(F)(F)c1ccc(N2CCC(N3CCCCC3)CC2)nc1-c1n[nH]c2ncccc12 [Compound 320] | > 700 nM | > 1250 nM | > 1250 nM |
| OCC1CCN(c2ccc(C(F)(F)F)c(-c3n[nH]c4ncccc34)n2)CC1 [Compound 321] | > 700 nM | > 1250 nM | > 1250 nM |
| CC(O)(c1ccccc1)C1CN(c2ccc(F)c(-c3n[nH]c4ncccc34)n2)CCN1 (stereo not drawn) [Compound 322] | < 500 nM | > 1250 nM | > 1250 nM |
| NC1(C2CCCN(c3ccc(F)c(-c4n[nH]c5ncccc45)n3)C2)CCC1 (stereo not drawn) [Compound 324] | < 50 nM | < 50 nM | < 2800 nM |
| CC(C)C[C@H]1CN(c2ccc(F)c(-c3n[nH]c4ncccc34)n2)CC[C@@H]1O [Compound 325] | < 500 nM | > 1250 nM | > 1250 nM |
| NCC1CCCN(c2ccc(F)c(-c3n[nH]c4ncccc34)n2)C1 (stereo not drawn) [Compound 327] | < 500 nM | > 1250 nM | > 1250 nM |
| CC(C)C(C)(O)C1CN(c2nc(-c3n[nH]c4ncccc34)ccc2F)CCN1 (stereo not drawn) [Compound 328] | < 1 nM | < 10 nM | < 500 nM |
| CC(C)C(C)(O)C1CN(c2nc(-c3n[nH]c4ncccc34)ccc2F)CCN1 (stereo not drawn) [Compound 329] | < 1 nM | < 50 nM | < 2800 nM |
| CC(C)(C)C(N)C1CCCN(c2ccc(F)c(-c3n[nH]c4ncccc34)n2)C1 (stereo not drawn) [Compound 330] | < 1 nM | < 10 nM | < 500 nM |
| CC(C)(C)C(N)C1CCCN(c2ccc(F)c(-c3n[nH]c4ncccc34)n2)C1 (stereo not drawn) [Compound 331] | < 500 nM | < 2800 nM | > 1250 nM |
| CC1CN(c2ccc(C(F)(F)F)c(-c3n[nH]c4ncccc34)n2)CC1CN (stereo not drawn) [Compound 332] | > 700 nM | > 1250 nM | > 1250 nM |
| CC(C)CC1CCCN(c2ccc(C(F)(F)F)c(-c3n[nH]c4ncccc34)n2)C1 (stereo not drawn) [Compound 333] | > 700 nM | > 1250 nM | > 1250 nM |
| CC(C)CC1CCCN(c2ccc(F)c(-c3n[nH]c4ncccc34)n2)C1 (stereo not drawn) [Compound 334] | > 700 nM | > 1250 nM | > 1250 nM |
| NCc1cccc(-c2cccc(-c3n[nH]c4ncccc34)n2)c1 [Compound 335] | < 2800 nM | < 2800 nM | < 2800 nM |
| NCC1CN(c2ccc(C(F)(F)F)c(-c3n[nH]c4ncccc34)n2)CCO1 (stereo not drawn) [Compound 336] | > 700 nM | > 1250 nM | > 1250 nM |

Other lines, results leading:

| Ki [1] | Ki [2] | Ki [3] | SMILES |
| --- | --- | --- | --- |
| < 500 nM | > 1250 nM | > 1250 nM | CC(C)CC1CN(c2ccc(C(F)(F)F)c(-c3n[nH]c4ncccc34)n2)CCC1C#N (stereo not drawn) [Compound 337] |
| < 500 nM | > 1250 nM | > 1250 nM | CCC[C@H]1CN(c2ccc(F)c(-c3n[nH]c4ncccc34)n2)C[C@H]1N [Compound 338] |
| < 500 nM | > 1250 nM | > 1250 nM | CCC[C@H]1CN(c2ccc(F)c(-c3n[nH]c4ncccc34)n2)C[C@@H]1N [Compound 339] |
| > 700 nM | > 1250 nM | > 1250 nM | CCC[C@H]1CN(c2ccc(C(F)(F)F)c(-c3n[nH]c4ncccc34)n2)C[C@H]1N [Compound 340] |
| > 700 nM | > 1250 nM | > 1250 nM | CCC[C@H]1CN(c2ccc(C(F)(F)F)c(-c3n[nH]c4ncccc34)n2)C[C@@H]1N [Compound 341] |
| < 500 nM | > 1250 nM | > 1250 nM | CC(C)C(C)(O)C1CN(c2cc(C(F)(F)F)cc(-c3n[nH]c4ncccc34)n2)CCN1 (stereo not drawn) [Compound 342] |
| < 50 nM | < 500 nM | > 1250 nM | NC1(C2CCCN(c3ccc(F)c(-c4n[nH]c5ncccc45)n3)C2)CCCC1 (stereo not drawn) [Compound 344] |
| < 50 nM | < 500 nM | > 1250 nM | CC(C)(F)C(N)C1CCCN(c2ccc(F)c(-c3n[nH]c4ncccc34)n2)C1 (stereo not drawn) [Compound 345] |
| < 50 nM | < 2800 nM | > 1250 nM | CC(C)C(N)C1CN(c2ccc(F)c(-c3n[nH]c4ncccc34)n2)CCO1 (stereo not drawn) [Compound 346] |
| < 500 nM | > 1250 nM | > 1250 nM | CC(C)C(N)C1CN(c2ccc(C(F)(F)F)c(-c3n[nH]c4ncccc34)n2)CCO1 (stereo not drawn) [Compound 348] |
| < 50 nM | > 1250 nM | > 1250 nM | CC(C)CC1CN(c2ccc(C(F)(F)F)c(-c3n[nH]c4ncccc34)n2)CCC1CN (stereo not drawn) [Compound 350] |
| < 50 nM | < 2800 nM | > 1250 nM | CC(C)CC1(CN)CCCN(c2ccc(F)c(-c3n[nH]c4ncccc34)n2)C1 (stereo not drawn) [Compound 351] |
| < 500 nM | < 2800 nM | > 1250 nM | CC(C)CC1(CN)CCCN(c2ccc(C(F)(F)F)c(-c3n[nH]c4ncccc34)n2)C1 (stereo not drawn) [Compound 352] |
| > 700 nM | > 1250 nM | > 1250 nM | NC[C@@H]1CCN(c2ccc(C(F)(F)F)c(-c3n[nH]c4ncccc34)n2)C1 [Compound 353] |
| > 700 nM | > 1250 nM | > 1250 nM | NC[C@H]1CCN(c2ccc(C(F)(F)F)c(-c3n[nH]c4ncccc34)n2)C1 [Compound 354] |
| > 700 nM | > 1250 nM | > 1250 nM | NC[C@@H]1CCCN1c1ccc(F)c(-c2n[nH]c3ncccc23)n1 [Compound 355] |
| > 700 nM | > 1250 nM | > 1250 nM | NC[C@@H]1CCCN1c1ccc(C(F)(F)F)c(-c2n[nH]c3ncccc23)n1 [Compound 356] |
| < 500 nM | > 1250 nM | > 1250 nM | NC[C@@H]1CCN(c2ccc(F)c(-c3n[nH]c4ncccc34)n2)C1 [Compound 357] |
| > 700 nM | > 1250 nM | > 1250 nM | FC(F)(F)c1ccc(N2CCC(Nc3ccccc3)CC2)nc1-c1n[nH]c2ncccc12 [Compound 358] |
| > 700 nM | > 1250 nM | > 1250 nM | CNC1CCN(c2ccc(C(F)(F)F)c(-c3n[nH]c4ncccc34)n2)CC1 [Compound 359] |
